Source: patent US9718808B2, “Inhibitors of the renal outer medullary potassium channel” (Merck Sharp & Dohme Corp., priority 2014, dated 2017)

Biological target: ROMK (Kir1.1) channel (Homo sapiens (Human), UniProt P48048)
Test: Thallium Flux Assay
Type: cell-based
Method: A Thallium Flux Assay was performed on each of the final product compounds of the Examples. This assay has been described previously; see, e.g., PCT Published Application WO 2013/062900.

Sequence of ROMK (Kir1.1) channel (P48048 whole entry): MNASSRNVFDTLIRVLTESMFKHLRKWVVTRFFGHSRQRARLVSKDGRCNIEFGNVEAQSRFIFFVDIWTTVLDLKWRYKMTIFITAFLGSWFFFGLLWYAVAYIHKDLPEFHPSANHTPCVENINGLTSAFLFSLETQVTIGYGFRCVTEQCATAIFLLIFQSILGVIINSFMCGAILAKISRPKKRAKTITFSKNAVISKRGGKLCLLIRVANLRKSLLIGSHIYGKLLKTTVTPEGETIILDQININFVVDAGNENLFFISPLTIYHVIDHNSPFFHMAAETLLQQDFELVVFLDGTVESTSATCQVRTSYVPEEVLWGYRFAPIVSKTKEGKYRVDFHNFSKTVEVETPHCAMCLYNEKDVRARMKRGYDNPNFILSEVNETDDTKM

| IC50 | SMILES |
| --- | --- |
| 0.16 µM | CC1=C(N2CC[C@]3(CC[C@@H](NCc4cnc5c(c4)Cn4nnnc4-5)CC3)C2=O)COC1=O [Example 52, (5r,8r)-8-(((8H-tetrazolo[1′,5′:1,2]pyrrolo[3,4-b]pyridin-6-yl)methyl)amino)-2-(4-methyl-5-oxo-2,5-dihydrofuran-3-yl)-2-azaspiro[4.5]decan-1-one] |
| 0.21 µM | CC1=C(N2CC[C@]3(CC[C@@H](NC[C@H](O)c4ccc5c(c4C)COC5=O)CC3)C2=O)COC1=O [Example 78, (5r,8r)-8-(((R)-2-hydroxy-2-(4-methyl-1-oxo-1,3-dihydroisobenzofuran-5-yl)ethyl)amino)-2-(4-methyl-5-oxo-2,5-dihydrofuran-3-yl)-2-azaspiro[4.5]decan-1-one] |
| 0.71 µM | CC1=C(N2CC[C@]3(CC[C@@H](NCc4ccc(-n5cnnn5)cn4)CC3)C2=O)COC1=O [Example 7B, (5r,8r)-2-(4-methyl-5-oxo-2,5-dihydrofuran-3-yl)-8-({[5-(1H-tetrazol-1-yl)pyridin-2-yl]methyl}amino)-2-azaspiro[4.5]decan-1-one] |
| 0.15 µM | CC1=C(N2CC[C@]3(CC[C@@H](N[C@H](C)c4ccc5c(c4)Cn4nnnc4-5)CC3)C2=O)COC1=O [Example 30, (5R,8r)-2-(4-methyl-5-oxo-2,5-dihydrofuran-3-yl)-8-{[(1R)-1-(5H-tetrazolo[5,1-a]isoindol-7-yl)ethyl]amino}-2-azaspiro[4.5]decan-1-one] |
| 0.55 µM | CC1=C(N2CC[C@]3(CC[C@@H](NCc4ccc5c(c4)-c4nnnn4C5)CC3)C2=O)COC1=O [Example 47, (5r,8r)-2-(4-methyl-5-oxo-2,5-dihydrofuran-3-yl)-8-[(5H-tetrazolo[5,1-a]isoindol-8-ylmethyl)amino]-2-azaspiro[4.5]decan-1-one] |
| 0.28 µM | CC1=C(N2CC[C@]3(CC[C@H](NC[C@H](O)c4ccc5c(c4C)COC5=O)CC3)C2=O)COC1=O [Example 79, (5S,8s)-8-{[(2R)-2-hydroxy-2-(4-methyl-1-oxo-1,3-dihydro-2-benzofuran-5-yl)ethyl]amino}-2-(4-methyl-5-oxo-2,5-dihydrofuran-3-yl)-2-azaspiro[4.5]decan-1-one] |
| 0.016 µM | CC1=C(N2CC[C@]3(CC[C@@H](NCc4ccc(-n5cnnn5)nc4)CC3)C2=O)COC1=O [Example 5, (5r,8r)-2-(4-methyl-5-oxo-2,5-dihydrofuran-3-yl)-8-({[6-(1H-tetrazol-1-yl)pyridin-3-yl]methyl}amino)-2-azaspiro[4.5]decan-1-one] |
| 0.45 µM | CC1=C(N2CC[C@]3(CC[C@H](NCc4ccc(-n5cnnn5)nc4)CC3)C2=O)COC1=O [Example 6, (5s,8s)-2-(4-methyl-5-oxo-2,5-dihydrofuran-3-yl)-8-({[6-(1H-tetrazol-1-yl)pyridin-3-yl]methyl}amino)-2-azaspiro[4.5]decan-1-one] |
| 0.019 µM | CC1=C(N2CC[C@]3(CC[C@@H](NCc4ccc5c(c4)C(C)n4nnnc4-5)CC3)C2=O)COC1=O (stereo partly shown) [Example 53, (5r,8r)-2-(4-methyl-5-oxo-2,5-dihydrofuran-3-yl)-8-(((5-methyl-5H-tetrazolo[5,1-a]isoindol-7-yl)methyl)amino)-2-azaspiro[4.5]decan-1-one] |

Continued, compound first:

| SMILES | IC50 |
| --- | --- |
| CC1=C(N2CC[C@]3(CC[C@H](N(CCO)Cc4ccc(-n5cnnn5)cn4)CC3)C2=O)COC1=O [Example 136] | 0.16 µM |
| CC1=C(N2CC[C@]3(CC[C@@H](N(C)Cc4ccc5c(c4)CCc4nnnn4-5)CC3)C2=O)COC1=O [Example 112] | 0.032 µM |
| CC1=C(N2CC[C@]3(CC[C@@H](N(C)Cc4ccc5c(c4F)Cn4nnnc4-5)CC3)C2=O)COC1=O [Example 121] | 0.023 µM |
| CC1=C(N2CC[C@]3(CC[C@@H](N(C)Cc4ccc(-n5cnnn5)cn4)CC3)C2=O)COC1=O [Example 88] | 0.007 µM |
| CC1=C(N2CC[C@]3(CC[C@@H](N(C)Cc4ccc(-n5cnnn5)nn4)CC3)C2=O)COC1=O [Example 80, (5r,8r)-2-(4-methyl-5-oxo-2,5-dihydrofuran-3-yl)-8-(methyl{[6-(1H-tetrazol-1-yl)pyridazin-3-yl]methyl}amino)-2-azaspiro[4.5]decan-1-one] | 0.019 µM |
| O=C1C=C(N2CC[C@]3(CC[C@@H](NCc4cnc(-n5cnnn5)cn4)CC3)C2=O)CO1 [Example 72, (5r,8r)-8-(((5-(1H-tetrazol-1-yl)pyrazin-2-yl)methyl)amino)-2-(5-oxo-2,5-dihydrofuran-3-yl)-2-azaspiro[4.5]decan-1-one] | 0.34 µM |
| CC1=C(N2CC[C@]3(CC[C@@H](N[C@@H](C)c4ccc5c(c4)CCc4nnnn4-5)CC3)C2=O)COC1=O [Example 21, (5S,8r)-8-{[(1S)-1-(4,5-dihydrotetrazolo[1,5-a]quinolin-7-yl)ethyl]amino}-2-(4-methyl-5-oxo-2,5-dihydrofuran-3-yl)-2-azaspiro[4.5]decan-1-one] | 0.044 µM |
| CC1C[C@]2(CC[C@@H](NCc3cnc(-n4cnnn4)cn3)CC2)C(=O)N1C1=CC(=O)OC1 (stereo partly shown) [Example 49, (5r,8r)-3-methyl-2-(5-oxo-2,5-dihydrofuran-3-yl)-8-({[5-(1H-tetrazol-1-yl)pyrazin-2-yl]methyl}amino)-2-azaspiro[4.5]decan-1-one] | 0.24 µM |
| CC1=C(N2CC[C@]3(CC[C@H](NCc4ccc(-n5ncnn5)nn4)CC3)C2=O)COC1=O [Example 74, (5s,8s)-8-(((6-(2H-tetrazol-2-yl)pyridazin-3-yl)methyl)amino)-2-(4-methyl-5-oxo-2,5-dihydrofuran-3-yl)-2-azaspiro[4.5]decan-1-one] | 0.21 µM |
| CC1=C(N2CC[C@]3(CC[C@@H](N(C)Cc4cc5c(cc4C)-c4nnnn4C5)CC3)C2=O)COC1=O [Example 122] | 0.026 µM |
| CC1=C(N2CC[C@]3(CC[C@@H](N[C@H](C)c4ccc5c(c4)CCc4nnnn4-5)CC3)C2=O)COC1=O [Example 18, (5R,8r)-8-{[(1R)-1-(4,5-dihydrotetrazolo[1,5-a]quinolin-7-yl)ethyl]amino}-2-(4-methyl-5-oxo-2,5-dihydrofuran-3-yl)-2-azaspiro[4.5]decan-1-one] | 0.33 µM |
| CC1=C(N2CC[C@]3(CC[C@@](C)(NCc4ccc(-n5cnnn5)nn4)CC3)C2=O)COC1=O [Example 48, (5r,8r)-8-methyl-2-(4-methyl-5-oxo-2,5-dihydrofuran-3-yl)-8-({[6-(1H-tetrazol-1-yl)pyridazin-3-yl]methyl}amino)-2-azaspiro[4.5]decan-1-one] | 0.0077 µM |
| CC1=C(N2C(=O)[C@]3(CC[C@H](N(C)Cc4ccc5c(c4)Cn4nnnc4-5)CC3)C[C@@H]2C)COC1=O [Example 120] | 0.043 µM |
| CC1=C(N2CC[C@]3(CC[C@@H](N(C)Cc4ccc5c(ccc6nnnn65)c4)CC3)C2=O)COC1=O [Example 96] | 0.021 µM |
| CC1=C(N2C(=O)[C@]3(CC[C@H](NCc4ccc5c(c4)Cn4nnnc4-5)CC3)C[C@@H]2C)COC1=O [Example 56, (3S,5r,8S)-8-(((5H-tetrazolo[5,1-a]isoindol-7-yl)methyl)amino)-3-methyl-2-(4-methyl-5-oxo-2,5-dihydrofuran-3-yl)-2-azaspiro[4.5]decan-1-one] | 0.52 µM |
| CC1=C(N2CC[C@]3(CC[C@@H](N(C)Cc4ccc(-n5cnnn5)nc4)CC3)C2=O)COC1=O [Example 84] | 0.74 µM |
| CC1=C(N2CC[C@]3(CC[C@H](N(C)Cc4ccc5c(c4)Cn4nnnc4-5)CC3)C2=O)COC1=O [Example 89] | 0.95 µM |
| CC1=C(N2CC[C@]3(CC[C@@H](N(C)Cc4nnc(-n5cnnn5)cc4C)CC3)C2=O)COC1=O [Example 107] | 0.022 µM |
| C[C@H]1C[C@]2(CC[C@H](NCc3ccc(-n4cnnn4)nc3)CC2)C(=O)N1C1=CC(=O)OC1 [Example 22, (3S,5s,8R)-3-methyl-2-(5-oxo-2,5-dihydrofuran-3-yl)-8-({[6-(1H-tetrazol-1-yl)pyridin-3-yl]methyl}amino)-2-azaspiro[4.5]decan-1-one] | 0.13 µM |
